# Results published in US20120225417A1, “Methods, Compositions and Kits for the Evaluation and Preservation of Sperm” (I'Alliance Boviteq Inc., priority 2011, published 2012).
# Legend:
# Type in all cases: biochemical
# [1] = test system: 3′-5′ cAMP-PDE activity in human spermatozoa; assay: 3′-5′ cAMP-PDE assay with family-specific PDE inhibitors in human spermatozoa; conditions: 95% fractionation method, papaverine 400 nM (FIG. 18)
# Experimental: Ejaculates were obtained by masturbation from healthy donors after a minimum of 2 days of sexual abstinence. After ejaculation, semen was kept at room temperature to allow liquefaction. To prepare human ejaculate, three different fractionation methods were used: “G2 method”, “40-80% fractionation” or “95% fractionation”.
# For “G2 method”, according to the ejaculate volume, approximately 1 ml of semen was added to 5 ml of isotonic solution: HEPES-buffered saline (HBS: 25 mM Hepes, 130 mM NaCl, 4 mM KCl, 0.5 mM MgCl2, 14 mM fructose, pH 7.6) in a 15 mL falcon tube to wash the spermatozoa from the seminal plasma. […] Then, the samples were vortex-agitated for 30 sec and kept on the ice until ready to run the assay. The concentration of sperm cells was measured according to hemacytometer method. […]
# The cAMP enzymatic assay (PDE assay) was conducted as previously described (Sasseville, M. et al., (2006). BMC developmental biology 6, 47). […] 3′-5′ cAMP-PDE activity was assessed at 34° C. in 200 μL final volume using 1 μM cAMP as substrate (Thompson, W. J. et al., (1979). Adv Cyclic Nucleotide Res 10, 69-92) with minor modifications. […] Knowing the exact concentrations of spermatozoa in each SP sample, total 3′-5′ cAMP-PDE activity was reported as the quantity of cAMP (fMol) hydrolysed per minute per the number of spermatozoa (fMol/min/10^6 spz). […]
# [2] = test system: 3′-5′ cAMP-PDE activity in bovine cauda epididymal plasma; assay: 3′-5′ cAMP-PDE assay in bovine cauda epididymal plasma; conditions: thawed epididymal plasma 0.5 μL; Papaverine (400 μM) as printed (FIG. 5)
# Experimental: Epididymis from sexually mature bulls was obtained from a local slaughterhouse. Immediately after slaughtering, testicles were kept on ice and brought to the laboratory within 3 hours. Epididymis was dissected and cleared from connective tissues. As already described (Frenette, G. et al., (2002). Biol Reprod 67, 308-313), fluid from the cauda epididymis was collected by retrograde flushing. Epididymal plasma was isolated according to the same centrifugations steps than the seminal plasma as described below.
# The cAMP enzymatic assay (PDE assay) was conducted as previously described (Sasseville, M. et al., (2006). BMC developmental biology 6, 47). Samples were directly subjected to PDE assay. 3′-5′ cAMP-PDE activity was assessed at 34° C. in 200 μL final volume using 1 μM cAMP as substrate (Thompson, W. J. et al., (1979). Adv Cyclic Nucleotide Res 10, 69-92) with minor modifications. […] Knowing the exact concentrations of spermatozoa in each SP sample, total 3′-5′ cAMP-PDE activity was reported as the quantity of cAMP (fMol) hydrolysed per minute per the number of spermatozoa (fMol/min/10^6 spz). […] To determine which PDE family contributes to total 3′-5′ cAMP-PDE activity, the activity measured in the presence of the respective inhibitors was subtracted from the total. […]
# [3] = test system: 3′-5′ cAMP-PDE activity in bovine spermatozoa; assay: 3′-5′ cAMP-PDE assay with family-specific PDE inhibitors in bovine spermatozoa; conditions: for Percentage of sensitive PDE activity, Cryo (B): cryopreserved bovine spermatozoa; for Percentage of sensitive PDE activity, Cryo (B) / Percentage of sensitive PDE activity, Fresh (A): Cil 10 μM, Rol 10 μM, Papa 400 nM
# Experimental: The semen was obtained from different Holstein bulls. The fresh ejaculated semen was kept in an insulated thermos flask, at 18° C., during transportation to the laboratory and processed within 3 hours after collection. The cryopreserved semen was obtained at the Centre d'Insémination […] du Québec (CIAQ) […]. The cryopreserved straws of semen were prepared according to CIAQ procedures. […] After cutting one end of the straw the semen was collected in a 15 ml falcon while cutting the other end. From this point fresh and cryopreserved semen were processed similarly. Approximately 50 μL of the semen was added to 5 mL of Talp-BSA medium in a 15 mL falcon tube to wash the spermatozoa. After centrifugation (280×g, 10 min, room temperature), the remaining pellet of approximately 100 μL was resuspended in Talp-BSA medium (500 μl for the fresh and 200 μl for two straws) to reach a concentration of 1×10^6 cells/10 μL. The samples were then vortex-agitated for 30 sec and kept on the ice until ready to run the assay. The concentration of sperm cells was measured according to hemacytometer method. The cAMP enzymatic assay (PDE assay) was conducted as previously described ([…]. et al., (2006). […] J. et al., (1979). Adv Cyclic Nucleotide Res 10, 69-92) with minor modifications. […] Measurements were also performed in the presence of PDE inhibitors: […] Cilostamide and Rolipram were purchased from Biomol. […] Each PDE assay was performed in triplicate for each experiment and each experiment was repeated at least three times. As described ([…]. et al., (2009). […] IBMX-sensitive PDE5 and PDE6 and IBMX-insensitive PDE9 activities are absent from these groups because cGMP is the specific substrate and then are not detected in the cAMP-PDE assay. […] J Dairy Sci 92, 3757-3765; […]., et al. (2007). Endocrinology 148, 1858-1867; Siuciak, J. A. et al., (2006). Neuropharmacology 51, 386-396).
structure (smiles),measurement,setting,value
COc1ccc(Cc2nccc3cc(OC)c(OC)cc23)cc1OC [Papaverine],Share of cAMP-PDE activity that is papaverine-sensitive,[1],more than 50%
same,Papaverine-sensitive PDE activity in bovine epididymal fluid (in words),[2],low
same,"Percentage of family specific sensitive PDE activity, 3 h Egg yolk",[3]; bovine spermatozoa after 3 h in egg yolk based cryoprotectant at 18° C.,60%
same,"Percentage of family specific sensitive PDE activity, 3 h Liquid semen",[3]; bovine spermatozoa after 3 h in liquid semen extender at 18° C.,56%
same,"Percentage of family specific sensitive PDE activity, 3 h 4° C.",[3]; bovine spermatozoa after 3 h in seminal plasma at 4° C.,60%
same,"Percentage of family specific sensitive PDE activity, 3 h 18° C.",[3]; bovine spermatozoa after 3 h in seminal plasma at 18° C.,59%
same,"Percentage of family specific sensitive PDE activity, Fresh",[3]; bovine spermatozoa rapidly after ejaculation (0 h),57%
same,Percentage of total PDE activity sensitive to the inhibitor,"[3]; bovine spermatozoa, 1 μM cAMP, IBMX 1 mM, cilostamide 10 μM, rolipram 10 μM, papaverine 400 nM (FIG. 12B)",55%
same,"Percentage of sensitive PDE activity, Cryo (B)",[3]; IBMX 1 mM,50%
same,"Percentage of sensitive PDE activity, Cryo (B)","[3]; IBMX 1 mM, listed as papaverine",49.8%
same,Share of 3′-5′ cAMP-PDE activity inhibited (papaverine-sensitive),"[3]; freshly ejaculated bovine spermatozoa, papaverine 400 nM (FIG. 21)",more than 50%
same,"Percentage of sensitive PDE activity, Fresh (A)","[3]; freshly ejaculated bovine spermatozoa, IBMX 1 mM",57%
same,"Percentage of sensitive PDE activity, Fresh (A)","[3]; freshly ejaculated bovine spermatozoa, IBMX 1 mM, listed as papaverine",57.1%
